These results are taken from patent publication US20110039763A1, “TARGETED ANTIMICROBIAL MOIETIES” (C3 JIAN, INC., priority 2009, published 2011).

“Also recorded” adds a separate entry of the source.

The test system of test [1] is microorganisms. As to the kind of experiment: Peptide activities: targeting/binding, antimicrobial, growth or phenotype altering (Tables 7, 8). It counts as cell-based. The note with it: peptides having multiple activities.
The subject of test [2] is microorganisms. Description: Targeting peptide binding to target microorganisms (Tables 3, 10, 12). The note with it: microorganism(s) the targeting peptide binds; binding in aqueous buffers that varied with peptide solubility, preferably 1x PBS.
In test [3] the test system is microorganisms. As to the kind of experiment: Morphology, biofilm and growth disrupting peptides (Table 5). Format: cell-based. Set-up: key: A: Peptide aggregates; B: Less hyphal formation; Clumps; Diffuse clumps and small polyps; F: Diffuse growth; H: Thin; I: Growth inhibition; Microcolony formation; Rippled; Small polyps; Thick; W: Halo formation on top, microlonies on bottom. From the text: In certain embodiments peptides that induce alterations in phenotype or other biological activities can also be used as antimicrobial effector moieties.

Take “PF-026: peptide having multiple activities (SIHFIN; Peptide with targeting and/or antimicrobial activity)”: in the test with microorganisms [1], the Activities entry was “G B”. In addition, the “Target(s)” value with microorganisms [2] was “S. epidermidis and M. luteus and P. mirabilis and C. albicans and MRSA and E. faecalis and C. jeikeium”. Besides, the “Organism, effect: MRSA” value with microorganisms [3] is reported as “MRSA (M)”.

Consider “PF-027: peptide having multiple activities (HNARKYLEFISQKIDGDKLTKEDSL; Peptide with targeting and/or antimicrobial activity)”, for which the Activities result in the test on microorganisms [1] was “G B”. Moreover, in the test with microorganisms [2], the “Target(s)” value was “M. luteus and MRSA and E. faecalis and C. jejuni”. In addition, in the test on microorganisms [3], the “Organism, effect: MRSA” value is reported as “MRSA (M)” and the “Organism, effect: S. epidermidis” value is listed as “S. epidermidis (D)”.

For “PF-029: peptide having multiple activities (NSTNE; Peptide with targeting and/or antimicrobial activity)”, in the test on microorganisms [1], the Activities entry was “G B”. The “Target(s)” value in the test on microorganisms [2] is “S. epidermidis; also recorded: M. luteus; also recorded: C. albicans; also recorded: C. jejuni”. Besides, the “Organism, effect: MRSA” value in the test on microorganisms [3] is reported as “MRSA (M)”.

Consider “PF-031: peptide having multiple activities (MPHHSTTSSRIVVPAHQSNMASTPNLSITP; Peptide with targeting and/or antimicrobial activity)”, for which the Activities result with microorganisms [1] was “G B”. In the test on microorganisms [2], the “Target(s)” value is reported as “M. luteus; also recorded: C. albicans”. For the same substance, the “Organism, effect: MRSA” value in the test on microorganisms [3] is reported as “MRSA (M)”.

As for “PF-034: peptide having multiple activities (EPKKKHFPKMESASSEP; Peptide with targeting and/or antimicrobial activity)”, the Activities result in the test on microorganisms [1] is given as “G B”. Besides, the “Target(s)” value with microorganisms [2] is “M. luteus”. Further, the “Organism, effect: S. epidermidis” value with microorganisms [3] was “S. epidermidis (A)”.

“PF-035: peptide having multiple activities (SFYESY; Peptide with targeting and/or antimicrobial activity)”: in the test on microorganisms [1], the Activities entry is “G B”. The “Target(s)” value in the test with microorganisms [2] is “S. epidermidis and M. luteus and E. coli and C. albicans and MRSA and C. jeikeium and C. jejuni”. The “Organism, effect: MRSA” value with microorganisms [3] was “MRSA (M)”.

Regarding “PF-036: peptide having multiple activities (ILNRLSRIVSNEVTSLIYSLK; Peptide with targeting and/or antimicrobial activity)”, in the test with microorganisms [1], the Activities entry is “G B”. Also, in the test on microorganisms [2], the “Target(s)” value is “S. epidermidis and M. luteus and P. mirabilis and E. coli and C. albicans and MRSA and S. pneumoniae and C. jejuni”. In addition, in the test with microorganisms [3], the “Organism, effect: C. jeikeium” value is “C. jeikeium (A)”; the “Organism, effect: M. luteus” value was “M. luteus (A)”; the “Organism, effect: MRSA” value is “MRSA (R)”; the “Organism, effect: S. epidermidis” value is on record as “S. epidermidis (S)”.

In the case of “PF-041: peptide having multiple activities (ELLVILPGFI; Peptide with targeting and/or antimicrobial activity)”, the Activities entry with microorganisms [1] is reported as “G B”. Besides, the “Target(s)” value in the test on microorganisms [2] is reported as “MRSA”. Further, in the test on microorganisms [3], the “Organism, effect: MRSA” value is reported as “MRSA (M)” and the “Organism, effect: S. epidermidis” value is “S. epidermidis (R)”.

“PF-043: peptide having multiple activities (MIKNETAYQMNELLVIRSAYAK; Peptide with targeting and/or antimicrobial activity)”: the Activities result in the test on microorganisms [1] is given as “G B”. In addition, the “Target(s)” value in the test with microorganisms [2] is “M. luteus; also recorded: C. jejuni”. In the test on microorganisms [3], the “Organism, effect: C. jeikeium” value is given as “C. jeikeium (A)”; the “Organism, effect: M. luteus” value is “M. luteus (C)”; the “Organism, effect: MRSA” value is on record as “MRSA (R)”; the “Organism, effect: S. epidermidis” value is recorded as “S. epidermidis (D)”.

On to “PF-045: peptide having multiple activities (LDINDYRSTY; Peptide with targeting and/or antimicrobial activity)”, for which, in the test with microorganisms [1], the Activities entry was “G B”. The “Target(s)” value in the test with microorganisms [2] is given as “S. epidermidis; also recorded: E. coli; also recorded: E. faecalis; also recorded: C. jejuni”. In addition, the “Organism, effect: MRSA” value with microorganisms [3] is recorded as “MRSA (S)”.

Turning to “PF-046: peptide having multiple activities (LDFYLTKHLTLML; Peptide with targeting and/or antimicrobial activity)”, in the test on microorganisms [1], the Activities result is “G B”. In addition, the “Target(s)” value in the test with microorganisms [2] is given as “E. coli; also recorded: E. faecalis; also recorded: C. jeikeium”. Also, in the test with microorganisms [3], the “Organism, effect: C. jeikeium” value is on record as “C. jeikeium (R)”; the “Organism, effect: MRSA” value is “MRSA (R)”; the “Organism, effect: S. epidermidis” value is given as “S. epidermidis (C)”.

Regarding “PF-048: peptide having multiple activities (LYFAFKKYQERVNQAPNIEY; Peptide with targeting and/or antimicrobial activity)”, the Activities entry in the test with microorganisms [1] is “G B”. Also, the “Target(s)” value in the test on microorganisms [2] is “S. epidermidis and M. luteus and E. coli and MRSA and C. jeikeium and C. jejuni”. In the test on microorganisms [3], the “Organism, effect: C. jeikeium” value is given as “C. jeikeium (S)”; the “Organism, effect: MRSA” value is “MRSA (W)”; the “Organism, effect: S. epidermidis” value was “S. epidermidis (D)”.

As to “PF-049: peptide having multiple activities (AYYLKRREEKGK; Peptide with targeting and/or antimicrobial activity)”, the Activities entry with microorganisms [1] is on record as “G B”. In the test with microorganisms [2], the “Target(s)” value is “S. epidermidis and MRSA and C. jeikeium and C. jejuni”. In addition, the “Organism, effect: MRSA” value with microorganisms [3] is on record as “MRSA (S)”.

On to “PF-051: peptide having multiple activities (RFFNFEIKKSTKVDYVFAHVDLSDV; Peptide with targeting and/or antimicrobial activity)”, for which, in the test with microorganisms [1], the Activities result is on record as “G B”. Besides, the “Target(s)” value with microorganisms [2] was “S. epidermidis and M. luteus and P. aeruginosa and C. albicans and MRSA and S. pneumoniae and E. faecalis”. Moreover, in the test with microorganisms [3], the “Organism, effect: M. luteus” value was “M. luteus (C)”; the “Organism, effect: MRSA” value is reported as “MRSA (D)”; the “Organism, effect: S. epidermidis” value is “S. epidermidis (D)”; the “Organism, effect: S. pneumoniae” value is recorded as “S. pneumoniae (D)”. The “Organism, effect: S. mutans” value in the test on microorganisms [3] (S. mutans, class symbol) is “S. mutans (D)”.

As for “PF-052: peptide having multiple activities (QELINEAVNLLVKSK; Peptide with targeting and/or antimicrobial activity)”, in the test on microorganisms [1], the Activities entry is reported as “G B”. Also, the “Target(s)” value in the test on microorganisms [2] was “S. epidermidis and M. luteus and E. coli and MRSA and E. faecalis and C. jeikeium and C. jejuni”. In the test with microorganisms [3], the “Organism, effect: C. jeikeium” value is listed as “C. jeikeium (D)”; the “Organism, effect: M. luteus” value is listed as “M. luteus (A)”; the “Organism, effect: MRSA” value is reported as “MRSA (R)”; the “Organism, effect: S. epidermidis” value is reported as “S. epidermidis (S)”.

As to “PF-058: peptide having multiple activities (FADQSQDNA; Peptide with targeting and/or antimicrobial activity)”, the Activities result with microorganisms [1] is “G B”. The “Target(s)” value in the test with microorganisms [2] is “S. epidermidis and M. luteus and E. coli and C. albicans and MRSA and C. jeikeium and C. jejuni”. The “Organism, effect: MRSA” value in the test with microorganisms [3] is “MRSA (M)”.

In the case of “PF-061: peptide having multiple activities (GYNSYKAVQDVKTHSEEQRVTAKK; Peptide with targeting and/or antimicrobial activity)”, in the test with microorganisms [1], the Activities result is recorded as “G B”. In addition, in the test with microorganisms [2], the “Target(s)” value is listed as “S. epidermidis; also recorded: S. pneumoniae”. Further, in the test with microorganisms [3], the “Organism, effect: B. subtilis” value was “B. subtilis (R)”; the “Organism, effect: C. jejuni” value is reported as “C. jejuni (R)”; the “Organism, effect: S. epidermidis” value is listed as “S. epidermidis (R)”; the “Organism, effect: S. pneumoniae” value is given as “S. pneumoniae (R)”.

With “PF-064: peptide having multiple activities (DYYGKE; Peptide with targeting and/or antimicrobial activity)”, the Activities result with microorganisms [1] is “G B”. Moreover, the “Target(s)” value in the test with microorganisms [2] is “E. coli”. Further, in the test with microorganisms [3], the “Organism, effect: MRSA” value was “MRSA (M)” and the “Organism, effect: S. epidermidis” value is “S. epidermidis (D)”.

Consider “PF-065: peptide having multiple activities (LEKNTRDNYFIHAIDRIYINTSKGLFPESELVAWG; Peptide with targeting and/or antimicrobial activity)”, for which, in the test with microorganisms [1], the Activities result is “G B”. In addition, the “Target(s)” value with microorganisms [2] is “M. luteus and E. coli and P. aeruginosa and C. albicans and MRSA and S. pneumoniae and C. jeikeium and C. jejuni”. Also, in the test on microorganisms [3], the “Organism, effect: C. jeikeium” value is reported as “C. jeikeium (A)”; the “Organism, effect: MRSA” value was “MRSA (R)”; the “Organism, effect: S. epidermidis” value is “S. epidermidis (D)”.

Turning to “PF-069: peptide having multiple activities (chain 1 FDPVPLKKDKSASKHSHKHNH; chain 2 FDPVPLKKDKSASKHSHKHNH; Peptide with targeting and/or antimicrobial activity)”, the Activities entry in the test on microorganisms [1] is “G B”. In the test on microorganisms [2], the “Target(s)” value is given as “E. faecalis; also recorded: C. jejuni”. Moreover, in the test on microorganisms [3], the “Organism, effect: B. subtilis” value was “B. subtilis (D)” and the “Organism, effect: C. jejuni” value is reported as “C. jejuni (R)”.

Turning to “PF-070: peptide having multiple activities (chain 1 SMVKSEIVDLLNGEDNDD; chain 2 SMVKSEIVDLLNGEDNDD; Peptide with targeting and/or antimicrobial activity)”, in the test with microorganisms [1], the Activities result is given as “G B”. In the test on microorganisms [2], the “Target(s)” value was “S. epidermidis; also recorded: C. jejuni”. In addition, the “Organism, effect: B. subtilis” value with microorganisms [3] is on record as “B. subtilis (D)”.
